Patent US20230391727A1, “ANALOGUES OF PENTAMIDINE AND METHODS FOR TREATING INFECTIONS” (Auransa Inc., priority 2020, published 2023)
≈ marks a conversion by molar mass, not a printed value.

How the values were obtained:
S. aureus ATCC 43300 = assay: MIC assay against gram positive S. aureus; type: cell-based; conditions: Staphylococcus aureus, ATCC43300
Protocol: (§1) Then the compound stocks were serially 2-fold diluted in a v-bottom 96-well plate to make 100-fold working solutions. One day before the test, −80° C. glycerol stock of S. aureus strains were streaked on cation-adjusted Mueller-Hinton agar (CAMHA) plates. On the day of test, fresh bacterial colonies were suspended into sterile saline to an OD600 nm of ˜0.1 (equivalent to 0.5 McFarland). The bacterial suspension was firstly 20-fold followed by 50-fold diluted in cation-adjusted Mueller-Hinton broth (CAMHB) plates to 1×10^6 CFU/PO. 198 ul of the inoculum was added into the round-bottom 96-well plates prefilled with 2 ul of 100-fold compound working solutions. After incubating at 35 +/−2° C. in ambient atmosphere for 18-24 h, MIC was recorded as the lowest concentration under which no visible bacterial growth was observed.

S. aureus ATCC 27660 = assay: MIC assay against gram positive S. aureus; type: cell-based; conditions: Staphylococcus aureus, ATCC27660
Protocol: as §1

A. baumannii ATCC 17978 = assay: Checkerboard assay with novobiocin (FIGS. 2, 3, 5, 6); type: cell-based, Acinetobacter baumannii; conditions: for MIC: Acinetobacter baumannii, ATCC17978, substance alone
Description: Novobiocin is an anti-staphylococcal drug, but with limited use. The oral form of novobiocin drug has since been withdrawn from the market due to lack of efficacy. This antibiotic is often used to treat Staphylococcus aureus infection, particularly methicillin resistant S. aureus “MRSA”.

NCI H69 cells = assay: CellTiter-Glo cell viability assay (cytotoxicity), 8 days; type: cell-based; conditions: Homo sapiens, 192 h, full growth media
Protocol: The experiment tested pentamidine, Compounds 1-6 in full growth media for 8 days. NCI H69 cells were initially treated with the test compounds on Day 0, and the cells were then replenished with fresh compound dilutions on Day 3. Pentamidine and Compound 1 were tested at 9 concentration points: 100 μM, 33.33 μM, 11.11 μM, 3.70 μM, 1.23 μM, […], 0.05 μM, and 0.02 μM (final DMSO concentration=0.5%). The raw data values from the CellTiter-Glo™ cell viability assay expressed in relative luminescence units were normalized to the vehicle for each individual plate, and any reduction in luminescence indicated a decrease in viability (%). The data was analyzed in GraphPad PRISM using a non-linear sigmoidal plot with variable slope (asymmetric four-point […]), and an IC50 value for each compound was generated based on the normalized dose-response curves and shown in Table 1.

[1] = system: Klebsiella pneumoniae (FDA-CDC AR-BANK#0160); assay: Checkerboard/MIC assay with rifampicin; type: cell-based; conditions: substance alone; Klebsiella pneumoniae AR-BANK#0160
Description: (§2) The 17 test strains/isolates were: (1) Serratia marcescens (ATCC 13880); (2) Salmonella typhimurium (ATCC 13311); (3) Salmonella choleraesuis (ATCC 10708); (4) Acinetobacter baumannii (ATCC BAA-1605); (5) A. baumannii (ATCC 17978); (6) A. baumannii (FDA-CDC AR-BANK#0088); (7) Citrobacter freundii (ATCC 8090); (8) Pseudomonas aeruginosa (BCCM 27647); (9) P. aeruginosa (BCCM 27648); (10) Escherichia coli (ATCC 25922); (11) E. coli (ATCC 10536); (12) Stenotrophomonas maltophilia (ATCC 13637); (13) Enterobacter cloacae (ATCC BAA-1143); (14) E. cloacae (ATCC 13047); (15) E. aerogenes (ATCC 13048); (16) Klebsiella pneumoniae (NCTC 13438); and (17) Klebsiella pneumoniae (FDA-CDC AR-BANK#0160). These bacterial strains were obtained from the American Type Culture Collection (ATCC, Rockville, MD, USA); Belgian Coordinated Collections of Microorganisms; The Culture Collections of Public Health England, UK; and FDA-CDC anticimrobial Resistance Isolate Bank, USA, and cryopreserved as single-use frozen working stock cultures which were stored at −80° C.
(§3) The 17 test strains were grown on nutrient agar or tryptic soy agar (TSA) medium as below. Colonies were suspended in phosphate buffered saline (PBS) pH 7.4. The absorbance of the bacterial suspension was measured with a spectrophotometer at OD620nm, and then the suspension was adjusted to 1-2×10^8 CFU/mL in PBS. The adjusted suspension was further diluted 1:500 in cation-adjusted Mueller-Hinton Broth. Each well contained approximately 5×10^5 CFU/mL. […] The testing inoculum was prepared within minutes before adding to wells of the test plate.
(§4) Compound 3 was tested in 8 points by two-fold serial titrations from 100 to 0.78 μg/mL. […] Assay plates were incubated and MIC endpoints were read as complete inhibition of visual growth. The checkerboard combination analysis was performed following the MIC testing protocol to identify potential synergistic, indifferent or antagonistic interactions. The analysis also included each test substance alone at the same concentration ranges.
(§5) FIC (Fraction Inhibitory Concentration) and FIC Index (FICI) values for each test condition and the average of FICI values of all pairwise combinations were calculated to determine if synergy or antagonism existed between the two substances. The FIC index was determined by calculating the sum of the ratios of MICs (minimum inhibitory concentrations) for both substances. […] Synergy is defined as the FICI (Σ)≤0.5; additivity or indifference are defined as the FICI (Σ)>0.5 to ≤4; antagonism is defined as the FICI (Σ)>4. The two fold of highest test article concentration was used for FIC value calculations in the circumstances where MIC values were greater than the highest test article concentration.

E. coli (ATCC 10536) = assay: Checkerboard/MIC assay with rifampicin; type: cell-based; conditions: ATCC10536; substance alone; Escherichia coli ATCC 10536
Description: as §2, §3, §4, §5

E. cloacae (ATCC 13047) = assay: Checkerboard/MIC assay with rifampicin; type: cell-based; conditions: ATCC13047; substance alone; Enterobacter cloacae ATCC-13047
Description: as §2, §3, §4, §5

[2] = system: Klebsiella pneumoniae (NCTC 13438); assay: Checkerboard/MIC assay with rifampicin; type: cell-based; conditions: NCTC13438, substance alone
Description: as §2, §3, §4, §5

[3] = system: A. baumannii (FDA-CDC AR-BANK#0088); assay: Checkerboard/MIC assay with rifampicin; type: cell-based; conditions: substance alone; Acinetobacter baumannii AR-BANK 0088
Description: as §2, §3, §4, §5

[4] = system: Escherichia coli (ATCC 25922); assay: Checkerboard/MIC assay with rifampicin; type: cell-based; conditions: ATCC25922, substance alone
Description: as §2, §3, §4, §5

[5] = system: E. aerogenes (ATCC 13048); assay: Checkerboard/MIC assay with rifampicin; type: cell-based; conditions: Klebsiella aerogenes, ATCC13048; substance alone; Enterobacter aerogenes ATCC-13048
Description: as §2, §3, §4, §5

[6] = system: Citrobacter freundii (ATCC 8090); assay: Checkerboard/MIC assay with rifampicin; type: cell-based; conditions: ATCC8090, substance alone
Description: as §2, §3, §4, §5

[7] = system: Pseudomonas aeruginosa (BCCM 27647); assay: Checkerboard/MIC assay with rifampicin; type: cell-based; conditions: substance alone; Pseudomonas aeruginosa BCCM27647
Description: as §2, §3, §4, §5

[8] = system: P. aeruginosa (BCCM 27648); assay: Checkerboard/MIC assay with rifampicin; type: cell-based; conditions: substance alone; Pseudomonas aeruginosa BCCM27648
Description: as §2, §3, §4, §5

[9] = system: Acinetobacter baumannii (ATCC BAA-1605); assay: Checkerboard/MIC assay with rifampicin; type: cell-based; conditions: substance alone; Acinetobacter baumannii BAA-1605
Description: as §2, §3, §4, §5

[10] = system: Salmonella typhimurium (ATCC 13311); assay: Checkerboard/MIC assay with rifampicin; type: cell-based; conditions: Salmonella enterica; substance alone; Salmonella typhimurium ATCC13311
Description: as §2, §3, §4, §5

[11] = system: Stenotrophomonas maltophilia (ATCC 13637); assay: Checkerboard/MIC assay with rifampicin; type: cell-based; conditions: ATCC13637, substance alone
Description: as §2, §3, §4, §5

[12] = system: Salmonella choleraesuis (ATCC 10708); assay: Checkerboard/MIC assay with rifampicin; type: cell-based; conditions: Salmonella enterica
Description: as §2, §3, §4, §5

[13] = system: Serratia marcescens (ATCC 13880); assay: Checkerboard/MIC assay with rifampicin; type: cell-based; conditions: ATCC13880, substance alone
Description: as §2, §3, §4, §5

[14] = system: A. baumannii (ATCC 17978); assay: Checkerboard/MIC assay with rifampicin; type: cell-based; conditions: ATCC17978; substance alone; Acinetobacter baumannii ATCC 17978
Description: as §2, §3, §4, §5

[15] = system: Enterobacter cloacae (ATCC BAA-1143); assay: Checkerboard/MIC assay with rifampicin; type: cell-based; conditions: substance alone; Enterobacter cloacae BAA-1143
Description: as §2, §3, §4, §5

Q: For `N=C(N)c1ccc(OCCCCCOc2ccc(C(=N)N)cc2)cc1` [Pentamidine, 1,5-bis(4-amidinophenoxy)pentane], which MIC (S. aureus ATCC 43300) is on record?
A: The MIC was 64 µg/mL (≈ 188 µM).

Q: And the MIC (S. aureus ATCC 27660)?
A: The MIC was 16 µg/mL (≈ 47 µM).

Q: For `N=C(N)c1ccc(CCCCCCCc2ccc(C3CCNC3)cc2)cc1` (stereo not drawn) [Compound 8, 4-(7-(4-(pyrrolidine-3-yl)phenyl)heptyl)benzimidamide], which “synergy with novobiocin as compared to pentamidine with novobiocin” value (A. baumannii ATCC 17978) is on record?
A: The value was “increased synergy”.

Q: What about the MIC (A. baumannii ATCC 17978) of the same compound?
A: The MIC was > 34.4 µM.

Q: What about the IC50 (NCI H69 cells) of the same compound?
A: Its IC50 is 1.92 µM.

Q: How did the “synergistic effect with novobiocin” value (A. baumannii ATCC 17978) turn out when `Nc1nccc2ccc(CCCCCCCc3ccc4ccnc(N)c4c3)cc12` [Compound 7, 7,7′-(heptane-1,7-diyl)bis(isoquinolin-1-amine)] was run?
A: The value was “no synergistic effect”.

Q: What about the MIC (A. baumannii ATCC 17978) of the same compound?
A: The MIC was 8.13 µM.

Q: What about the IC50 (NCI H69 cells) of the same compound?
A: The IC50 was 1.15 µM.

Q: How did the IC50 (NCI H69 cells) turn out when `N=C(N)c1ccc(CC[C@@H]2CCC[C@H](CCc3ccc(C4CCNC4)cc3)C2)cc1` (stereo partly drawn) [Compound 5, 4-(2-((1S,3R)-3-(4-(pyrrolidin-3-yl)phenethyl)cyclohexyl)ethyl)benzimidamide] was run?
A: The IC50 was 1.46 µM.

Q: And the MIC (S. aureus ATCC 43300)?
A: The MIC was 8 µg/mL (≈ 19.8 µM).

Q: What about the MIC (S. aureus ATCC 27660) of the same compound?
A: The MIC was 8 µg/mL (≈ 19.8 µM).

Q: Which “synergistic effect with novobiocin” value (A. baumannii ATCC 17978) does the source give for `N=C(N)c1cccc(CCCCCCCc2cccc(C(=N)N)c2)c1` [Compound 1, 3,3′-(heptane-1,7-diyl)dibenzimidamide] here?
A: The value was “clear synergistic effects”.

Q: And the “synergy with novobiocin as compared to pentamidine with novobiocin” value (A. baumannii ATCC 17978)?
A: The value was “superior synergy”.

Q: And the MIC (A. baumannii ATCC 17978)?
A: Its MIC is 149 µM.

Q: And the IC50 (NCI H69 cells)?
A: The IC50 was 0.31 µM.

Q: For `N=C(N)c1cccc(CC[C@H]2CCC[C@@H](CCc3cccc(C(=N)N)c3)C2)c1` [Compound 6, 3,3′-(((1R,3S)-cyclohexane-1,3-diyl)bis(ethane-2,1-diyl))dibenzimidamide], which IC50 (NCI H69 cells) is on record?
A: The IC50 was 0.33 µM.

Q: `N=C(N)c1ccc(CC[C@@H]2CCC[C@@H](CCc3ccc(C(=N)N)cc3)C2)cc1` [Compound 4, 4,4′-(2,2′-((1R,3R)-cyclohexane-1,3-diyl)bis(ethane-2,1-diyl))dibenzimidamide] was tested. Which IC50 (NCI H69 cells) did it give?
A: Its IC50 is 0.75 µM.

Q: `CO[C@H]1/C=C/O[C@@]2(C)Oc3c(C)c(O)c4c(O)c(c(/C=N/N5CCN(C)CC5)c(O)c4c3C2=O)NC(=O)/C(C)=C\C=C\[C@H](C)[C@H](O)[C@@H](C)[C@@H](O)[C@@H](C)[C@H](OC(C)=O)[C@@H]1C` [Rifampicin, reference compound] was tested. Which MIC [1] did it give?
A: The MIC was > 12.5 µg/mL.

Q: What about the MIC (E. coli (ATCC 10536)) of the same compound?
A: The MIC was 3.12 µg/mL.

Q: What about the MIC (E. cloacae (ATCC 13047)) of the same compound?
A: Its MIC is > 12.5 µg/mL.

Q: What about the MIC [2] of the same compound?
A: Its MIC is > 12.5 µg/mL.

Q: What about the MIC [3] of the same compound?
A: Its MIC is 3.12 µg/mL.

Q: And the MIC [4]?
A: The MIC was 6.25 µg/mL.

Q: What about the MIC [5] of the same compound?
A: Its MIC is > 12.5 µg/mL.

Q: What about the MIC [6] of the same compound?
A: The MIC was > 12.5 µg/mL.

Q: What about the MIC [7] of the same compound?
A: Its MIC is > 12.5 µg/mL.

Q: And the MIC [8]?
A: Its MIC is > 12.5 µg/mL.

Q: And the MIC [9]?
A: The MIC was 3.12 µg/mL.

Q: What about the MIC [10] of the same compound?
A: Its MIC is > 12.5 µg/mL.

Q: And the MIC [11]?
A: Its MIC is 6.25 µg/mL.

Q: And the MIC [12]?
A: The MIC was 12.5 µg/mL.

Q: What about the MIC [13] of the same compound?
A: The MIC was > 12.5 µg/mL.

Q: And the MIC [14]?
A: Its MIC is 6.25 µg/mL.

Q: What about the MIC [15] of the same compound?
A: Its MIC is > 12.5 µg/mL.

Q: What does the source list for `CO[C@@H]1[C@@H](OC(N)=O)[C@@H](O)[C@H](Oc2ccc3c(O)c(NC(=O)c4ccc(O)c(CC=C(C)C)c4)c(=O)oc3c2C)OC1(C)C` [novobiocin, reference compound]?
A: MIC (A. baumannii ATCC 17978): > 18.9 µM; MIC of novobiocin when FICI is calculated (A. baumannii ATCC 17978; value used for FICI calculation): 37.8 µM
